Data on 17 molecules can be found in ChEMBL document CHEMBL5131493, “Synthesis and evaluation of RNase L-binding 2-aminothiophenes as anticancer agents” (Bioorg Med Chem, 2022).

As usually defined, the inhibition is the change of the read-out against control, counted positive when it falls. The term IC50 denotes the concentration that gives 50% inhibition.

In assay [1] the test system is MCF7. In words: Antiproliferative activity against human MCF7 cells assessed as cell growth inhibition at 10 uM incubated for 72 hrs by MTT assay relative to control. In kind it is functional. (Tetrazolium dyes change colour on reduction, which living cells bring about.)
Assay [2] deals with K562. In words: Antiproliferative activity against human K562 cells assessed as cell growth inhibition incubated for 72 hrs by MTT assay. In kind it is functional, cell-based. The conditions noted are these: K562, 72 h.
The test system of assay [3] is A549. In words: Antiproliferative activity against human A549 cells assessed as cell growth inhibition at 10 uM incubated for 72 hrs by MTT assay relative to control. The assay is classed as functional.
The test system of assay [4] is JAR. Briefly: Antiproliferative activity against human JAR cells assessed as cell growth inhibition at 10 uM incubated for 72 hrs by MTT assay relative to control. In kind it is functional.
The test system of assay [5] is JAR. Briefly: Antiproliferative activity against human JAR cells assessed as cell growth inhibition incubated for 72 hrs by MTT assay. In kind it is functional, cell-based.
Assay [6] relates to A549. Briefly: Antiproliferative activity against human A549 cells assessed as cell growth inhibition incubated for 72 hrs by MTT assay. In kind it is functional, cell-based. The note with it: A549, 72 h.

On to `CCOC(=O)C1=C(Nc2ccccc2)S/C(=C\c2cc3cccnc3[nH]2)C1=O`, for which the inhibition at 10 µM amounted to 18.2% in assay [1], 16.7% in assay [3] and 54.3% in assay [4]. In addition, the figures for the IC50 in assay [2] and in assay [5] were more than 100 µM and 14.4 µM, respectively.
Consider `CCOC(=O)C1=C(Nc2ccccc2)S/C(=C\c2cc3cnccc3[nH]2)C1=O`, for which the inhibition at 10 µM in assay [4] was less than 10%.
`CCOC(=O)C1=C(Nc2ccc(OC)cc2)S/C(=C\c2ccc[nH]2)C1=O`: the inhibition at 10 µM in assay [1] is less than 10%; in assay [3] it was less than 10%; in assay [4], 27.6%.
On to `CCOC(=O)C1=C(Nc2ccc(F)cc2)S/C(=C\c2ccc[nH]2)C1=O`, for which the inhibition at 10 µM is less than 10% in assay [1], less than 10% in assay [3] and 61.5% in assay [4]. Also, the IC50 in assay [2] was more than 100 µM; in assay [5], 15.9 µM.
Turning to `CCOC(=O)C1=C(Nc2cccc(C(F)(F)F)c2)S/C(=C\c2ccc[nH]2)C1=O`, the results for the inhibition at 10 µM in assay [1], in assay [3] and in assay [4] were 22.9%, 22.8% and 52.9%, respectively. Also, the IC50 in assay [2] was more than 100 µM; in assay [5] it was 19.7 µM.
The matching figures for `CCOC(=O)C1=C(Nc2ccccc2)S/C(=C\c2cccc(C(=O)O)c2)C1=O`: less than 10%, less than 10%, 50.6%, 16.2 µM and 11.7 µM.
Take `CCOC(=O)C1=C(Nc2ccccc2)S/C(=C\c2ccc([N+](=O)[O-])c(O)c2)C1=O`: the results for the inhibition at 10 µM in assay [1] and in assay [4] were 41.5% and 51.2%, respectively. Moreover, the IC50 in assay [2] came out at 12.7 µM; in assay [6] it was 19.1 µM; in assay [5], 12.7 µM.
Regarding `CCOC(=O)C1=C(Nc2ccccc2)S/C(=C\c2cc3ncccc3[nH]2)C1=O`, the inhibition at 10 µM in assay [1] was 42.2%; in assay [4], 74.8%. Further, the IC50 was 6.6 µM in assay [2], 13.6 µM in assay [6] and 9.6 µM in assay [5].
`CCOC(=O)C1=C(Nc2cccc(F)c2)S/C(=C\c2ccc[nH]2)C1=O`: the inhibition at 10 µM was less than 10% in assay [1], less than 10% in assay [3] and 45.4% in assay [4]. For the same molecule, the IC50 in assay [2] is more than 100 µM; in assay [5], 22.6 µM.
Regarding `CCOC(=O)C1=C(Nc2ccc(C)cc2)S/C(=C\c2ccc[nH]2)C1=O`, the inhibition at 10 µM is less than 10% in assay [1], 20.9% in assay [3] and less than 10% in assay [4].
Consider `CCOC(=O)C1=C(Nc2ccc(OC)c(OC)c2)S/C(=C\c2ccc[nH]2)C1=O`, for which the inhibition at 10 µM in assay [4] came to 47.9%.
For the molecule `CCOC(=O)C1=C(Nc2ccccc2)SC(=C2CCN(C)CC2)C1=O`, the inhibition at 10 µM in assay [1], in assay [3] and in assay [4] was less than 10% throughout.
On to `CN1CCN(c2cc3c(cc2[N+](=O)[O-])-c2c(cnn2-c2ccc(C(=O)O)cc2)C(C)(C)O3)CC1`, for which the IC50 was 16.5 µM in assay [2], more than 100 µM in assay [6] and 9.3 µM in assay [5]. Moreover, the inhibition at 10 µM in assay [4] was found to be 53.5%.
As to `CCOC(=O)C1=C(Nc2ccc(C(F)(F)F)cc2)S/C(=C\c2ccc[nH]2)C1=O`, the figures for the inhibition at 10 µM in assay [1], in assay [3] and in assay [4] were 19.1%, 30.1% and 38.5%, respectively. The IC50 in assay [5] amounted to 46.8 µM.
As for `CCOC(=O)C1=C(Nc2ccccc2)S/C(=C\c2c[nH]c3ccccc23)C1=O`, the results for the inhibition at 10 µM in assay [1], in assay [3] and in assay [4] were 25%, 19.8% and 57.6%, respectively. Further, the IC50 in assay [2] was more than 100 µM; in assay [5], 14.1 µM.
For `CCOC(=O)C1=C(Nc2ccc([N+](=O)[O-])cc2)S/C(=C\c2ccc[nH]2)C1=O`, the IC50 in assay [2] was more than 100 µM; in assay [5], 15.6 µM. Further, the inhibition at 10 µM in assay [4] turned out to be 54.9%.
On to `CCOC(=O)C1=C(Nc2ccc(CC)cc2)S/C(=C\c2ccc[nH]2)C1=O`, for which the inhibition at 10 µM is 17.5% in assay [3] and less than 10% in assay [4].
